Earlier results as cited in patent EP1180016B1, “METHODS AND COMPOSITIONS FOR NON-VIRAL GENE THERAPY FOR TREATMENT OF HYPERPROLIFERATIVE DISEASES” (Introgen Therapeutics, Inc., priority 1999, dated 2000).
Where a name gives a salt, the structure may show the parent alone. *1 amine or outer side, *2 acyl side, *3 side chain or, on linkers, in order; H or OH if unused. Where a SMILES comes first, the peptide text is derived from it. Bridges are numbered along the chain shown (N, C = ends). Roman numbers before positions name the chains, in order. [ ]: non-standard residue; d: D form. Actinocin(9to1) = Cc1c2oc3c(C)ccc(C(=O)[*:1])c3nc-2c(C(=O)[*:2])c(N)c1=O; NMeV = CN[C@H](C(=O)O)C(C)C; Sar = CNCC(=O)O

Columns and labels:
[1] = test system: chronic myelogenous leukemia; details: previously untreated chronic myelogenous leukemia
[2] = physiological pH

Cc1c2oc3c(C)ccc(C(=O)N[C@@H]4C(=O)N[C@H](C(C)C)C(=O)N5CCC[C@H]5C(=O)N(C)CC(=O)N(C)[C@@H](C(C)C)C(=O)O[C@@H]4C)c3nc-2c(C(=O)N[C@@H]2C(=O)N[C@H](C(C)C)C(=O)N3CCC[C@H]3C(=O)N(C)CC(=O)N(C)[C@@H](C(C)C)C(=O)O[C@@H]2C)c(N)c1=O [Actinomycin D] (I: T[dV]P[Sar][NMeV] / II: T[dV]P[Sar][NMeV]; ester I:1-I:C, II:1-II:C; linker I:N-II:N via Actinocin(9to1))
dose excreted intact into the bile (in vivo): Half

CS(=O)(=O)OCCCCOS(C)(=O)=O [Busulfan, 1,4-butanediol dimethanesulfonate]
adults obtaining hematologic remission with regression or stabilization of organomegaly [1]: Approximately 90%

O=C(O)CCCc1ccc(N(CCCl)CCCl)cc1 [Chlorambucil, 4-[bis(2-chlorethyl)amino] benzenebutanoic acid]
terminal half-life of the parent drug (single oral doses of 0.6-[…]): 1.5 h

COc1cccc2c1C(=O)c1c(O)c3c(c(O)c1C2=O)C[C@@](O)(C(C)=O)C[C@@H]3O[C@H]1C[C@H](N)[C@H](O)[C@H](C)O1 [Daunorubicin, 5,12-Naphthacenedione, (8S-cis)-8-acetyl-10-[(3-amino-2,3,6-trideoxy-a-L-lyxo-hexanopyranosyl)oxy]-7,8,9,10-tetrahydro-6,8,11-trihydroxy-10-methoxy-, hydrochloride]
half-life of distribution (intravenous): 0.75 h

O=NN(CCCl)C(=O)NC1CCCCC1 [Lomustine, 1-(2-chloro-ethyl)-3-cyclohexyl-1 nitrosourea]
ionization [2]: relatively unionized
radioactivity excreted in the form of degradation products within 24 hours (oral radioactive lomustine, 30 mg/m^2 to 100 mg/m^2): about half
